Biological target: T1, HIV-1 Reverse Transkriptase (Human immunodeficiency virus type 1 group M subtype B, UniProt P03366)
T1 construct: Rekombinante HIV-1 Reverse Transkriptase (66 kDa); made in house; host or cells: Escherichia coli
Assay: HIV-1 RT test (3H-TTP incorporation, recombinant enzyme)
Assay type: biochemical
Details: positive control; read-out: IC₅₀ (HIV-1 RT)
Source text: Zur Untersuchung der biologischen Aktivität wird das aufgereinigte Protein (P 1) in einem Ribosomen-Hemmtest und einem HIV-1 RT Test eingesetzt. Im Ribosomen-Hemmtest wird die Inaktivierung von Ribosomen in einem Retikulozyten-Lysat durch das erfindungsgemäße Protein gemessen (vgl. Krawetz et al., 1983). Im HIV-1 RT Test wird die Hemmung der HIV-1 Reverse Transkriptase (HIV-1 RT) durch das erfindungsgemäße Protein P 1 bestimmt (vgl. Tan et al., 1991).
Enzym: Rekombinante HIV-1 Reverse Transkriptase (66 kDa), exprimiert in Escherichia coli (vgl. Tan et al., 1991 und darin zitierte Literatur). Die Aktivität des Enzyms in RT-Testsystemen ist von viralem Enzym nicht zu unterscheiden. Protein-Konzentration: 0,11 mg/ml; Aktivität: Einbau von 238 nM TTP/mg Protein in 10 min bei 37°C. Testansatz: 50 mM Tris-HCl, pH 8,0, 150 mM KCl, 5 mM MgCl₂, 0,5 mM EGTA, 5 mM Dithiothreitol, 0,3 mM Glutathion, 2,5 µg/ml BSA, 41 µM poly(A) (Σ₂₆₀(mM) = 7,8), 9,5 µM oligo(dT)₁₂₋₁₈ (Σ₂₆₅(mM) = 5,6), 0,05% Triton X-100, 20 µm TTP und 0,5 µCi (³H)-TTP (Endvolumen 100 µl). Probenlösung: 10 µl, in H₂O oder 25 mM Tris-HCl, pH 8,4. HIV-1 RT: 10 µl (0,11 µg in Testpuffer)
Die Polymerisationsreaktion wird durch den Zusatz der HIV-1 RT-Lösung zum Testansatz gestartet. Nach einer Inkubationszeit von 1 Stunde (37°C) wird die Reaktion durch Zugabe von 25 µl einer 0,1 M EGTA-Lösung gestoppt und die Ansätze auf Eis gekühlt. […]

COc1cc2c(ccc3c4cc(OC)c(OC)cc4c[n+](C)c23)cc1O [Fagaronin-Chlorid]
IC50: 13 µM
